# Columns and labels:
# Test in all cases: In vitro antibacterial evaluation: minimum inhibitory concentration (MIC), broth dilution method
# Assay type in all cases: cell-based
# [1] = test system: Enterococcus sp.; settings: 18 hours at 35° C.
# Outline: (§1)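 Susceptibility determined by NCCLS-recommended broth dilution (M7-A2), Muller-Hinton II […]. Concentration span 64-0.06 μg/mL, inoculum 5×10^5 CFU/mL. Isolates include strains resistant to methicillin, penicillin and/or vancomycin.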
# [2] = test system: Escherichia coli; settings: 18 hours at 35° C.
# Outline: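 First, organisms are seeded at 5×10^5 CFU/mL into Muller-Hinton II […]. Next, antibiotic is applied across 64-0.06 μg/mL by broth dilution (NCCLS M7-A2). Finally, the lowest inhibitory concentration is recorded as MIC.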
# [3] = test system: Staphylococcus sp.; settings: for MIC Staphylococcus aureus (ATCC 29213): strain ATCC 29213; for MIC Staphylococcus aureus (GC 1131): strain GC 1131; for MIC Staphylococcus aureus (GC 3051): strain GC 3051; for MIC Staphylococcus aureus (GC 3053): strain GC 3053; for MIC Staphylococcus aureus (GC 4541): strain GC 4541; for MIC Staphylococcus aureus (GC 4542): strain GC 4542; for MIC Staphylococcus aureus (GC 4544): strain GC 4544; for MIC Staphylococcus aureus (GC 4545): strain GC 4545
# Outline: as §1
# [4] = test system: Streptococcus sp.; settings: 18 hours at 35° C.
# Outline: as §1
# [5] = broth dilution, 5×10^5 CFU/mL, 18 hours at 35° C.
# [6] = broth dilution, 18 hours at 35° C.
# [7] = broth dilution, inoculum 5×10^5 CFU/mL
smiles,measurement,setting,value
CC(c1ccccc1)C1NC(=O)CNC(=O)C(CO)NC(=O)C(C(O)C2CNC(=N)N2C2OC(CO)C(O)C(O)C2O)NC(=O)C(C(O)C2CNC(=N)N2)NC(=O)C(Cc2ccc(OC3OC(CO)C(OC4OC5COC(CC67CC8CC(CC(C8)C6)C7)OC5C(O)C4O)C(O)C3O)cc2)NC1=O (stereo not drawn) [Example 129],MIC Enterococccus avium (GC 4558),"[1]; broth dilution, 5×10^5 CFU/mL",2 µg/mL
same,MIC Enterococccus faecalis (ATCC 29212),"[1]; broth dilution, 5×10^5 CFU/mL",2 µg/mL
same,MIC Enterococccus faecalis (GC 2691),"[1]; broth dilution, 5×10^5 CFU/mL",2 µg/mL
same,MIC Enterococccus faecalis (GC 3059),"[1]; broth dilution, 5×10^5 CFU/mL",2 µg/mL
same,MIC Enterococccus faecalis (GC 4552),"[1]; broth dilution, 5×10^5 CFU/mL",2 µg/mL
same,MIC Enterococccus faecalis (GC 4553),"[1]; broth dilution, 5×10^5 CFU/mL",2 µg/mL
same,MIC Enterococccus faecalis (GC 4554),"[1]; broth dilution, 5×10^5 CFU/mL",2 µg/mL
same,MIC Enterococccus faecalis (GC 6189),"[1]; broth dilution, 5×10^5 CFU/mL",2 µg/mL
same,MIC Enterococccus faecium (GC 2243),"[1]; broth dilution, 5×10^5 CFU/mL",2 µg/mL
same,MIC Enterococccus faecium (GC 4556),"[1]; broth dilution, 5×10^5 CFU/mL",2 µg/mL
same,MIC Enterococccus faecium (GC 4557),"[1]; broth dilution, 5×10^5 CFU/mL",2 µg/mL
same,MIC Enterococcus faecalis (GC 2242),"[1]; broth dilution, 5×10^5 CFU/mL",2 µg/mL
same,MIC Escherichia coli (ATCC 25922),[2]; 5×10^5 CFU/mL,32 µg/mL
same,MIC Escherichia coli (GC 4559),[2]; 5×10^5 CFU/mL,32 µg/mL
same,MIC Escherichia coli (GC 4560),[2]; 5×10^5 CFU/mL,2 µg/mL
same,MIC Coagulase Negative Staphylococcus (GC 4547),[3]; [5],2 µg/mL
same,MIC Coagulase Negative Staphylococcus (GC 4548),[3]; [5],1 µg/mL
same,MIC Coagulase Negative Staphylococcus (GC 4549),[3]; [5],1 µg/mL
same,MIC Coagulase Negative Staphylococcus (GC 4551),[3]; [5],4 µg/mL
same,MIC Coagulase Negative Staphylococcus (GC 6257),[3]; [5],1 µg/mL
same,MIC Staphylococcus aureus-SMITH (GC 4543),[3]; [5],2 µg/mL
same,MIC Staphylococcus haemolyticus (GC 4546),[3]; [5],2 µg/mL
same,MIC Staphylococcus aureus (ATCC 29213),[3],4 µg/mL
same,MIC Staphylococcus aureus (ATCC 29213),[3]; [6],4 µg/mL
same,MIC Staphylococcus aureus (GC 1131),[3],2 µg/mL
same,MIC Staphylococcus aureus (GC 1131),[3]; [6],2 µg/mL
same,MIC Staphylococcus aureus (GC 3051),[3],2 µg/mL
same,MIC Staphylococcus aureus (GC 3051),[3]; [6],2 µg/mL
same,MIC Staphylococcus aureus (GC 3053),[3],2 µg/mL
same,MIC Staphylococcus aureus (GC 3053),[3]; [6],2 µg/mL
same,MIC Staphylococcus aureus (GC 4541),[3],2 µg/mL
same,MIC Staphylococcus aureus (GC 4541),[3]; [6],2 µg/mL
same,MIC Staphylococcus aureus (GC 4542),[3],2 µg/mL
same,MIC Staphylococcus aureus (GC 4542),[3]; [6],2 µg/mL
same,MIC Staphylococcus aureus-SMITH (GC 4543),"[3]; strain GC 4543, broth dilution, 18 hours at 35° C.",2 µg/mL
same,MIC Staphylococcus aureus (GC 4544),[3],2 µg/mL
same,MIC Staphylococcus aureus (GC 4544),[3]; [6],2 µg/mL
same,MIC Staphylococcus aureus (GC 4545),[3],2 µg/mL
same,MIC Staphylococcus aureus (GC 4545),[3]; [6],2 µg/mL
same,MIC Staphylococcus haemolyticus (GC 4546),"[3]; strain GC 4546, broth dilution, 18 hours at 35° C.",2 µg/mL
same,MIC Coagulase Negative Staphylococcus (GC 4547),"[3]; strain GC 4547, broth dilution, 18 hours at 35° C.",2 µg/mL
same,MIC Coagulase Negative Staphylococcus (GC 4548),"[3]; strain GC 4548, broth dilution, 18 hours at 35° C.",1 µg/mL
same,MIC Coagulase Negative Staphylococcus (GC 4549),"[3]; strain GC 4549, broth dilution, 18 hours at 35° C.",1 µg/mL
same,MIC Coagulase Negative Staphylococcus (GC 4551),"[3]; strain GC 4551, broth dilution, 18 hours at 35° C.",4 µg/mL
same,MIC Coagulase Negative Staphylococcus (GC 6257),"[3]; strain GC 6257, broth dilution, 18 hours at 35° C.",1 µg/mL
same,MIC Streptococcus agalactiae (GC 4564),"[4]; broth dilution, 5×10^5 CFU/mL",<0.06 µg/mL
same,MIC Streptococcus pneumoniae (GC 1894),"[4]; broth dilution, 5×10^5 CFU/mL",<0.06 µg/mL
same,MIC Streptococcus pneumoniae (GC 4565),"[4]; broth dilution, 5×10^5 CFU/mL",<0.06 µg/mL
same,MIC Streptococcus pneumonine (ATCC 6301),"[4]; broth dilution, 5×10^5 CFU/mL",<0.06 µg/mL
same,MIC Streptococcus pyogenes (GC 4563),"[4]; broth dilution, 5×10^5 CFU/mL",<0.06 µg/mL
"CC(c1ccccc1)C1NC(=O)CNC(=O)C(CO)NC(=O)C(C(O)C2CNC(=N)N2C2OC(CO)C(O)C(O)C2O)NC(=O)C(C(O)C2CNC(=N)N2)NC(=O)C(Cc2ccc(OC3OC(CO)C(OC4OC5COC6(CCCCC6)OC5C(O)C4O)C(O)C3O)cc2)NC1=O (stereo not drawn) [Example 203, Cyclo[glycyl-β-methylphenylalanyl-O-[4-O-(4,6-O-cyclohexylidene-4-O-hexopyranosyl)hexopyranosyl]tyrosyl-3-(2-iminoimidazolidin-4-yl)seryl-3-(3-hexopyranosyl-2-iminoimidazolidin-4-yl)serylseryl]]",MIC Enterococcus avium (GC 4558),[1]; Enterococcus avium (GC 4558),8 µg/mL
same,MIC Enterococcus faecalis (ATCC 29212),[1]; Enterococcus faecalis (ATCC 29212),8 µg/mL
same,MIC Enterococcus faecalis (GC 2242),[1]; Enterococcus faecalis (GC 2242),4 µg/mL
same,MIC Enterococcus faecalis (GC 2691),[1]; Enterococcus faecalis (GC 2691),8 µg/mL
same,MIC Enterococcus faecalis (GC 3059),[1]; Enterococcus faecalis (GC 3059),8 µg/mL
same,MIC Enterococcus faecalis (GC 4552),[1]; Enterococcus faecalis (GC 4552),8 µg/mL
same,MIC Enterococcus faecalis (GC 4553),[1]; Enterococcus faecalis (GC 4553),8 µg/mL
same,MIC Enterococcus faecalis (GC 4554),[1]; Enterococcus faecalis (GC 4554),8 µg/mL
same,MIC Enterococcus faecalis (GC 6189),[1]; Enterococcus faecalis (GC 6189),8 µg/mL
same,MIC Enterococcus faecium (GC 2243),[1]; Enterococcus faecium (GC 2243),8 µg/mL
same,MIC Enterococcus faecium (GC 4556),[1]; Enterococcus faecium (GC 4556),4 µg/mL
same,MIC Enterococcus faecium (GC 4557),[1]; Enterococcus faecium (GC 4557),4 µg/mL
same,MIC Enterococcus avium (GC 4558),[1]; [7],8 µg/mL
same,MIC Enterococcus faecalis (ATCC 29212),[1]; [7],8 µg/mL
same,MIC Enterococcus faecalis (GC 2242),[1]; [7],4 µg/mL
same,MIC Enterococcus faecalis (GC 2691),[1]; [7],8 µg/mL
same,MIC Enterococcus faecalis (GC 3059),[1]; [7],8 µg/mL
same,MIC Enterococcus faecalis (GC 4552),[1]; [7],8 µg/mL
same,MIC Enterococcus faecalis (GC 4553),[1]; [7],8 µg/mL
same,MIC Enterococcus faecalis (GC 4554),[1]; [7],8 µg/mL
same,MIC Enterococcus faecalis (GC 6189),[1]; [7],8 µg/mL
same,MIC Enterococcus faecium (GC 2243),[1]; [7],8 µg/mL
same,MIC Enterococcus faecium (GC 4556),[1]; [7],4 µg/mL
same,MIC Enterococcus faecium (GC 4557),[1]; [7],4 µg/mL
same,MIC Escherichia coli (ATCC 25922),[2]; Escherichia coli (ATCC 25922),64 µg/mL
same,MIC Escherichia coli (GC 4559),[2]; Escherichia coli (GC 4559),32 µg/mL
same,MIC Escherichia coli (GC 4560),[2]; Escherichia coli (GC 4560),2 µg/mL
same,MIC Staphylococcus aureus (ATCC 29213),[3],1 µg/mL
same,MIC Staphylococcus aureus (GC 1131),[3],2 µg/mL
same,MIC Staphylococcus aureus (GC 3051),[3],2 µg/mL
same,MIC Staphylococcus aureus (GC 3053),[3],4 µg/mL
same,MIC Staphylococcus aureus (GC 4541),[3],1 µg/mL
same,MIC Staphylococcus aureus (GC 4542),[3],1 µg/mL
same,MIC Staphylococcus aureus-SMITH (GC 4543),[3]; strain GC 4543,2 µg/mL
same,MIC Staphylococcus aureus (GC 4544),[3],2 µg/mL
same,MIC Staphylococcus aureus (GC 4545),[3],1 µg/mL
same,MIC Staphylococcus haemolyticus (GC 4546),[3]; strain GC 4546,1 µg/mL
same,MIC Coagulase Negative Staphylococcus (GC 4547),[3]; strain GC 4547,2 µg/mL
same,MIC Coagulase Negative Staphylococcus (GC 4548),[3]; strain GC 4548,1 µg/mL
same,MIC Coagulase Negative Staphylococcus (GC 4549),[3]; strain GC 4549,1 µg/mL
same,MIC Coagulase Negative Staphylococcus (GC 4551),[3]; strain GC 4551,2 µg/mL
same,MIC Coagulase Negative Staphylococcus (GC 6257),[3]; strain GC 6257,1 µg/mL
same,MIC Streptococcus agalactiae (GC 4564),[4]; Streptococcus agalactiae (GC 4564),1 µg/mL
same,MIC Streptococcus pneumoniae (ATCC 6301),[4]; Streptococcus pneumoniae (ATCC 6301),0.5 µg/mL
same,MIC Streptococcus pneumoniae (GC 1894),[4]; Streptococcus pneumoniae (GC 1894),0.12 µg/mL
same,MIC Streptococcus pneumoniae (GC 4565),[4]; Streptococcus pneumoniae (GC 4565),0.25 µg/mL
same,MIC Streptococcus pyogenes (GC 4563),[4]; Streptococcus pyogenes (GC 4563),0.5 µg/mL
same,MIC Streptococcus agalactiae (GC 4564),[4]; [7],1 µg/mL
same,MIC Streptococcus pneumoniae (ATCC 6301),[4]; [7],0.5 µg/mL
same,MIC Streptococcus pneumoniae (GC 1894),[4]; [7],0.12 µg/mL
same,MIC Streptococcus pneumoniae (GC 4565),[4]; [7],0.25 µg/mL
same,MIC Streptococcus pyogenes (GC 4563),[4]; [7],0.5 µg/mL

# Source: US8247211B2, “Glycopeptide antibiotics” (American Cyanamid Company, priority 2001, dated 2012)
